# Marks after values point to notes of the source that are not given here.
# Experiments:
# [1] = system: social behaviours in the rat Tetradic Encounter test; assay: Rat Tetradic Encounter test; settings: for % of time Agonistic behaviour: sum of defensive and aggressive behaviour
# [2] = system: social behaviours in the Mutual Resident Intruder rat test; assay: Mutual Resident Intruder rat test; settings: for % of time Agonistic behaviour: sum of defensive and aggressive behaviour
# [3] = system: choice of the large-but-delayed reward (impulsivity); assay: Rat T-maze procedure: large-but-delayed vs small-but-immediate reward; assay type: in vivo; settings: juvenile Wistar rats; for % Choice of the large but delayed reward on Control sessions: placebo administered before control (pre-drug and post-drug) sessions of the same group
# Method: Subjects. male Wistar AF rats (28-41 days old) (Centre d′Elevage René Janvier, France) were used. […] During the whole study, tap water was provided ad libitum. Food was restricted to 5-10 g/day/animal in order to maintain animals at 65-75% of their free feeding weight
# Experimental procedure. The experiments were performed in two identical T-maze apparatus constructed from opaque grey plastic tubing and consisting of a starting runway (30 cm long) and two arms (35 cm long) each leading to a rectangular black plastic goal box (18 cm large, 30 cm wide, 10 cm high). Removable grey plastic guillotine doors could be inserted into the vertical clefts, situated at the entry of the starting runway and at each end of the arms. One of the goal-boxes (left or right, depending on the rats) was constantly provided with a large reward, the other with a small reward. Large and small rewards consisted, respectively, of 5 and 1 pellets (20 mg, Technical & Scientific Equipment GmbH, Germany). The pellets were placed in a translucent food-cup before each trial.
# First phase: habituation. Animals were first subjected to two 5-min sessions of habituation. The rat was gently introduced in the starting runway, which then was closed with a guillotine door inserted in the cleft (referred to as c0 in FIG. 1). The animal was allowed to freely explore the apparatus and to eat food rewards placed in the food cups.
# Second phase: pretraining. After a door was placed in the cleft c2 near each goal-box, the rat was introduced in the starting runway. When it entered one of the two arms, a door was inserted behind it in the cleft c1 near the choice area and the door placed in cleft c2 was removed. As soon as the animal entered the goal-box, the door was placed again in the cleft c2. The rat was removed from the goal-box as soon as the pellets were eaten (usually within less than 1 min). The animal was then returned to its home cage for an intertrial interval of 2 to 3 min. Each rat was submitted one to five times/day to five trials sessions in this procedure. Training was initiated when the rat selected the arm giving access to the large reward in more than 14 out of 15 trials.
# Third phase: training. Rats underwent one to five times/day five trials training sessions during which a delay was introduced before access to the large reward. After a door was placed in the cleft c2 near each goal-box, the rat was introduced in the starting runway. When it entered one of the two arms, a second door was inserted behind it in the cleft c1 near the choice area, so that rat selecting the arm leading to the large reward could be detained in this arm for a period (referred to as the waiting delay) before having access to the reinforcement. Otherwise, if the animal selected the arm leading to the small reward, the door placed in the cleft c2 was immediately opened, allowing the animal to enter the goal-box. At the beginning of training, the waiting delay was 30 sec. Then, if the percentage of choices of the large and delayed reward remained high (i.e. ≧40%) for more than six sessions, it was increased to 45 sec, and if necessary to 60 sec, 90 sec and finally 120 sec. Drug testing began when the animal selected the large and delayed reward in two trials out of five (or less) in two consecutive sessions and in one trial out of five (or less) in the following session.
# Drug testing was conducted over six consecutive test-sessions of five trials each, during which the access to the large reward was preceded by the waiting delay. Test sessions were: Two control pre-drug sessions: control pre-drug session 1 and control pre-drug session 2; Two drug sessions: drug session 1 and drug session 2; Two control post-drug sessions: control post-drug session 1 and control post-drug session 2.
# [4] = 1 mg/kg s.c. 30 min before test
# [5] = 5 mg/kg s.c. 30 min before test
SMILES,% Choice of the large but delayed reward on Control sessions [3],"% of time Aggressive behaviour [1, 4]","% of time Defensive behaviour [1, 4]","% of time Friendly behaviour [1, 4]","% of time Non-social behaviour [1, 4]","% of time Agonistic behaviour [1, 4]","% of time Aggressive behaviour [1, 5]","% of time Defensive behaviour [1, 5]","% of time Friendly behaviour [1, 5]","% of time Non-social behaviour [1, 5]","% of time Agonistic behaviour [1, 5]","% of time Aggressive behaviour [2, 4]","% of time Defensive behaviour [2, 4]","% of time Friendly behaviour [2, 4]","% of time Non-social behaviour [2, 4]","% of time Agonistic behaviour [2, 4]","% of time Aggressive behaviour [2, 5]","% of time Defensive behaviour [2, 5]","% of time Friendly behaviour [2, 5]","% of time Non-social behaviour [2, 5]",also measured
"C[C@H](N)Cc1ccccc1 [Amphetamine, D-amphetamine, reference compound]",–,–,–,–,–,–,–,–,–,–,–,–,–,–,–,–,–,–,–,–,% of time Aggressive behaviour ([1]; 0.5 mg/kg (positive control)): 0.1*** % of time; % of time Defensive behaviour ([1]; 0.5 mg/kg (positive control)): 1.2*** % of time; % of time Friendly behaviour ([1]; 0.5 mg/kg (positive control)): 17.3* % of time; % of time Non-social behaviour ([1]; 0.5 mg/kg (positive control)): 81.4*** % of time; % of time Agonistic behaviour ([1]; 0.5 mg/kg (positive control)): 1.4*** % of time; % of time Aggressive behaviour ([2]; 0.5 mg/kg (positive control)): 3.9*** % of time; % of time Defensive behaviour ([2]; 0.5 mg/kg (positive control)): 4.0*** % of time; % of time Friendly behaviour ([2]; 0.5 mg/kg (positive control)): 5.3 % of time; % of time Non-social behaviour ([2]; 0.5 mg/kg (positive control)): 86.8*** % of time; % of time Agonistic behaviour ([2]; 0.5 mg/kg (positive control)): 7.9*** % of time
"CNCC[C@@H](Oc1ccccc1C)c1ccccc1 [Atomoxetine, reference compound]",10.7 ± 2.3%,–,–,–,–,–,–,–,–,–,–,–,–,–,–,–,–,–,–,–,% Choice of the large but delayed reward on Drug sessions ([3]; 1 mg/kg i.p. 30 min before the test): 40.0 ± 2.2 %
COc1cc(N2CCOCC2)cc(C)c1NC(=O)CC1CCCC1 [Compound 2],11.7 ± 2.5%,5.3 % of time,7.2 % of time,18.2* % of time,69.3 % of time,12.5 % of time,0.4** % of time,0.8*** % of time,26.2 % of time,72.7** % of time,1.2*** % of time,15.5 % of time,17.3 % of time,4.0 % of time,63.1 % of time,32.8*** % of time,0.7*** % of time,0.2*** % of time,2.4 % of time,96.6*** % of time,"% Choice of the large but delayed reward on Drug sessions ([3]; 1 mg/kg s.c. 30 min before the test): 33.3 ± 3.3 %; % of time Agonistic behaviour [2, 5]: 0.9*** % of time"
"Cc1cc(N2CCOCC2)nc(C)c1NC(=O)CC(C)(C)C [Compound 3, N-(2,4-dimethyl-6-morpholin-4-yl-pyridin-3-yl)-3,3-dimethylbutyramide]",8.3 ± 2.8%,5.9 % of time,8.5 % of time,20.2 % of time,65.4 % of time,14.4 % of time,0.1** % of time,0.0*** % of time,20.0 % of time,79.9*** % of time,0.1*** % of time,12.0 % of time,12.3 % of time,3.4 % of time,72.3 % of time,24.3 % of time,0.2*** % of time,0.2*** % of time,2.3 % of time,97.4*** % of time,"% Choice of the large but delayed reward on Drug sessions ([3]; 2.5 mg/kg s.c. 30 min before the test): 25.0 ± 6.7 %; % of time Agonistic behaviour [2, 5]: 0.3*** % of time"

# From patent US20100256145A1, “USE OF KCNQ POTASSIUM CHANNEL OPENERS FOR REDUCING SYMPTOMS OF OR TREATING DISORDERS OR CONDITIONS WHEREIN THE DOPAMINERGIC SYSTEM IS DISRUPTED” (H. LUNDBECK A/S, priority 2007, published 2010)
